Format in all cases: cell-based
Assay [1] has as its system IL-6 (THP-1 cells). Kind of assay: IL-6 inhibition in LPS-stimulated THP-1 cells (HTRF). Conditions: Homo sapiens; for EC50: IL-6 in THP-1 cells, LPS 500 ng/mL, 22 hours; for inhibition at 10 µM: given where EC50 >10 μM, IL-6, THP-1 cells, LPS, read-out: percent inhibition at 10 μM. As for the experimental part:
Human monocyte cell line (THP-1 cells; Catalog # TIB-202, ATCC, Manassas, Va.) were cultured in Roswell Park Memorial Institute (RPMI) 1640 Medium (Catalog #21870-100, Buffalo, N.Y.) with 1% L-glutamine, 1% HEPES, 1% Sodium Pyruvate, 2% Sodium Bicarbonate supplemented with 100 units/mL penicillin, 50 μg/mL streptomycin, 2-mercaptoethanol (0.05 mM) [basal medium] and 10% fetal bovine serum (Catalog #16140089, Life Technologies, Carlsbad, Calif.) at 37° C. and 5% CO2.
THP-1 cells were cultured in basal media with 1% FBS for 24 hours before the start of the assay. Each compound was dissolved in DMSO as a 10 mM stock and used to prepare compound source plates. Serial dilution (1:3, 10-point dose-response curves starting from 10 μM) and compound transfer was performed using the ECHO 550 (Labcyte, Sunnyvale, Calif.) into 384-well white low volume assay plates (Greiner Bio-One) with appropriate DMSO backfill for a final DMSO concentration of 0.1%. THP-1 cells were plated at 5000 cells/well in the 384-well plates and incubated at 37° C. for 2 h. 500 ng/mL of LPS was added after 2 hours and cells were incubated for another 22 hours at 37° C. Plates were spun in a centrifuge for 1 minute at […] and a mixture of anti-IL6 XL665, and anti-IL6 Cryptate diluted in reconstitution buffer (Cisbio Inc.) was added to each well. Following incubation for 3 hrs at room temperature, Homogeneous Time-Resolved Fluorescence (HTRF) was measured using the Envision (Perkin Elmer) at 665 nm and […]. The ratio of fluorescence at 665 nm to 620 nm was used as a readout for IL6 quantification. All samples were processed in duplicate. Readings were normalized to DMSO treated cells and normalized activities were utilized for EC50 calculations using the dose-response log (inhibitor) vs. response-variable slope (four parameters) nonlinear regression feature available in GraphPad Prism 5.0 (or Dotmatics). For EC50 of >10 μM, the percent inhibition at 10 μM is provided.
Background: Time-resolved FRET reads energy transfer from a long-lived donor to a nearby acceptor.

Assay [2] deals with Wnt activity (Sp5-Luc reporter, SW480 colon carcinoma cells). Kind of assay: Wnt activity screening assay, Sp5-Luc reporter gene in SW480 cells. Conditions: Homo sapiens; for inhibition at 10 µM: given where EC50 >10 μM, read-out: percent inhibition at 10 μM; for EC50: overnight incubation. The text has this:
The screening assay for Wnt activity is described as follows. Reporter cell lines can be generated by stably transducing cancer cell lines (e.g., colon cancer) or primary cells (e.g., IEC-6 intestinal cells) with a lentiviral construct that includes a Wnt-responsive promoter driving expression of the firefly luciferase gene.
SW480 colon carcinoma cells were transduced with a lentiviral vector expressing luciferase with a human Sp5 promoter consisting of a sequence of eight TCF/LEF binding sites. SW480 cells stably expressing the Sp5-Luc reporter gene and a hygromycin resistance gene were selected by treatment with 150 μg/mL of hygromycin for 7 days. These stably transduced SW480 cells were expanded in cell culture and used for all further screening activities. Each compound was dissolved in DMSO as a 10 mM stock and used to prepare compound source plates. Serial dilution (1:3, 10-point dose-response curves starting from 10 μM) and compound transfer was performed using the ECHO 550 (Labcyte, Sunnyvale, Calif.) into 384-well white solid bottom assay plates (Greiner Bio-One) with appropriate DMSO backfill for a final DMSO concentration of 0.1%. For Sp5-Luc reporter gene assays, the cells were plated at 4,000 cells/well in 384-well plates with medium containing 1% fetal bovine serum and incubated overnight at 37° C. and 5% CO2. Following incubation, 20 μl of BrightGlo luminescence reagent (Promega) was added to each well of the 384-well assay plates. The plates were placed on an orbital shaker for 2 min and then luminescence was quantified using the Envision (Perkin Elmer) plate reader. Readings were normalized to DMSO only treated cells, and normalized activities were utilized for EC50 calculations using the dose-response log (inhibitor) vs. response-variable slope (four parameters) nonlinear regression feature available in GraphPad Prism 5.0 (or Dotmatics). For EC50 of >10 μM, the percent inhibition at 10 μM is provided.
(A reporter such as luciferase makes a cellular process visible.)

Assay [3] deals with SW480 colon cancer cells. The experiment in a line: Cell viability assay (CellTiter-Blue). Conditions: Homo sapiens, 96 h, four days; for inhibition at 10 µM: given where EC50 >10 μM, read-out: percent inhibition at 10 μM. The procedure: Representative compounds were screened using the following assay procedure to assess the effect on cell viability as described below.
Each compound was dissolved in DMSO as a 10 mM stock and used to prepare compound source plates. Serial dilution (1:3, 8-point dose-response curves from 10 μM to 0.0045 μM) and compound transfer was performed using the ECHO 550 (Labcyte, Sunnyvale, Calif.) into 96-well clear bottom, black-walled plates (Corning-Costar).
Approximately 2×10^3 SW480 colon cancer cells were seeded into each well and allowed to incubate in the presence or absence of compound for four days at 37° C./5% CO2. Eight replicates of DMSO-treated cells served as controls and cells treated with compound were performed in duplicate.
After incubation, 20 μL of CellTiter-Blue (Promega) was added to each well allowed to incubate for approximately 3 hours. This reagent was a buffered solution which contains resazurin, metabolically active cells were able to reduce rezarurin (blue) into resorufin (pink) which was highly fluorescent. This measured fluorescence was used as a readout for cell viability.
After incubation, the plates were read at Ex 560 nm Em 590 nm (Cytation 3, BioTek). Dose-response curves were generated and EC50 concentration values were calculated using non-linear regression curve fit in the GraphPad Prism (San Diego, Calif.) or Dotmatics' Studies Software (Bishops Stortford, UK). For EC50 of >10 μM, the percent inhibition at 10 μM is provided.
For orientation: Resazurin is reduced to fluorescent resorufin, in cell work by metabolically active cells.

One may read the EC50 as the concentration that produces a half-maximal response. Read a high EC50 as a need for much substance. The inhibition is the share of the control response that was lost under treatment.

Each structure is given as a SMILES string. Some results are limits rather than exact numbers.

As to `CCC(=O)Nc1cncc(-c2cc3c(-c4cc5c(-c6cccc(F)c6)ccnc5[nH]4)n[nH]c3cn2)c1` [Compound 1, N-(5-(3-(4-(3-Fluorophenyl)-1H-pyrrolo[2,3-b]pyridin-2-yl)-1H-pyrazolo [3,4-c]pyridin-5-yl)pyridin-3-yl)propionamide], the concentration giving a half-maximal response (EC50) in assay [1], in assay [2] and in assay [3] was above 10 µM in each case. Besides, the figures for the inhibition at 10 µM in assay [1], in assay [2] and in assay [3] were 23.6%, 24.3% and 36.3%, respectively.
For the compound `Fc1cccc(-c2ccnc3[nH]c(-c4n[nH]c5cnc(-c6cccnc6)cc45)cc23)c1` [Compound 4, 3-(4-(3-Fluorophenyl)-1H-pyrrolo[2,3-b]pyridin-2-yl)-5-(pyridin-3-yl)-1H-pyrazolo[3,4-c]pyridine], the concentration for a half-maximal effect (EC50) in assay [1] was above 10 µM; in assay [2], 1.21 µM; in assay [3], 2.73 µM. The inhibition at 10 µM in assay [1] was found to be 21.3%.
Regarding `CC(C)(C)C(=O)Nc1cncc(-c2cc3c(-c4cc5c(-c6cccc(F)c6)ccnc5[nH]4)n[nH]c3cn2)c1` [Compound 8, N-(5-(3-(4-(3-Fluorophenyl)-1H-pyrrolo[2,3-b]pyridin-2-yl)-1H-pyrazolo [3,4-c]pyridin-5-yl)pyridin-3-yl)pivalamide], the EC50 in assay [1] was above 10 µM; in assay [2], 0.073 µM; in assay [3] it was 0.723 µM. Further, the inhibition at 10 µM in assay [1] is 45.4%.
With `O=C(Nc1cncc(-c2cc3c(-c4cc5c(-c6cccc(F)c6)ccnc5[nH]4)n[nH]c3cn2)c1)c1ccccc1` [Compound 11, N-(5-(3-(4-(3-Fluorophenyl)-1H-pyrrolo[2,3-b]pyridin-2-yl)-1H-pyrazolo [3,4-c]pyridin-5-yl)pyridin-3-yl)benzamide], the EC50 in assay [1], in assay [2] and in assay [3] was above 10 µM throughout. Besides, the inhibition at 10 µM in assay [1] worked out at 38.9%; in assay [2], 8.2%; in assay [3], 46.8%.
Consider `Fc1cccc(-c2ccnc3[nH]c(-c4n[nH]c5cnc(-c6cncc(CN7CCCC7)c6)cc45)cc23)c1` [Compound 14, 3-(4-(3-Fluorophenyl)-1H-pyrrolo[2,3-b]pyridin-2-yl)-5-(5-(pyrrolidin-1-ylmethyl)pyridin-3-yl)-1H-pyrazolo[3,4-c]pyridine], for which the 50% effective concentration (EC50) in assay [1], in assay [2] and in assay [3] was above 10 µM each time. Also, the inhibition at 10 µM in assay [1] is 21.6%; in assay [2] it was 22.8%; in assay [3], 13.3%.
On to `O=C(Nc1cncc(-c2cc3c(-c4cc5c(-c6cccc(F)c6)ccnc5[nH]4)n[nH]c3cn2)c1)C1CC1` [Compound 20, N-(5-(3-(4-(3-Fluorophenyl)-1H-pyrrolo[2,3-b]pyridin-2-yl)-1H-pyrazolo [3,4-c]pyridin-5-yl)pyridin-3-yl)cyclopropanecarboxamide], for which the values for the EC50 in assay [1], in assay [2] and in assay [3] were above 10 µM, 0.097 µM and 0.159 µM, respectively. Further, the inhibition at 10 µM in assay [1] was determined as 42.8%.
`Fc1cccc(-c2ccnc3[nH]c(-c4n[nH]c5cnc(-c6cncnc6)cc45)cc23)c1` [Compound 27, 3-(4-(3-Fluorophenyl)-1H-pyrrolo[2,3-b]pyridin-2-yl)-5-(pyrimidin-5-yl)-1H-pyrazolo[3,4-c]pyridine]: the values for the concentration for a half-maximal effect (EC50) in assay [1], in assay [2] and in assay [3] were above 10 µM, 0.507 µM and above 10 µM, respectively. The inhibition at 10 µM in assay [1] stood at 43.9%; in assay [3] it was 41.2%.
On to `CC(C)CC(=O)Nc1cncc(-c2cc3c(-c4cc5c(-c6ccc(F)cc6)ccnc5[nH]4)n[nH]c3cn2)c1` [Compound 30, N-(5-(3-(4-(4-Fluorophenyl)-1H-pyrrolo[2,3-b]pyridin-2-yl)-1H-pyrazolo [3,4-c]pyridin-5-yl)pyridin-3-yl)-3-methylbutanamide], for which the values for the EC50 in assay [1], in assay [2] and in assay [3] were above 10 µM, 0.444 µM and 2.47 µM, respectively. Further, the inhibition at 10 µM in assay [1] turned out to be 35.6%.
For the compound `CC(C)C(=O)Nc1cncc(-c2cc3c(-c4cc5c(-c6ccc(F)cc6)ccnc5[nH]4)n[nH]c3cn2)c1` [Compound 37, N-(5-(3-(4-(4-Fluorophenyl)-1H-pyrrolo[2,3-b]pyridin-2-yl)-1H-pyrazolo [3,4-c]pyridin-5-yl)pyridin-3-yl)isobutyramide], the concentration for a half-maximal effect (EC50) is above 10 µM in assay [1], 0.671 µM in assay [2] and 2.69 µM in assay [3]. Besides, the inhibition at 10 µM in assay [1] came to 25.4%.
On to `O=C(Nc1cncc(-c2cc3c(-c4cc5c(-c6ccc(F)cc6)ccnc5[nH]4)n[nH]c3cn2)c1)C1CCC1` [Compound 49, N-(5-(3-(4-(4-Fluorophenyl)-1H-pyrrolo[2,3-b]pyridin-2-yl)-1H-pyrazolo [3,4-c]pyridin-5-yl)pyridin-3-yl)cyclobutanecarboxamide], for which the concentration for a half-maximal effect (EC50) in assay [1] was above 10 µM; in assay [2], 0.747 µM; in assay [3], 4.64 µM. The inhibition at 10 µM in assay [1] was 26.1%.
As for `Nc1cncc(-c2cc3c(-c4cc5c(-c6ccccc6F)ccnc5[nH]4)n[nH]c3cn2)c1` [Compound 59, 5-(3-(4-(2-Fluorophenyl)-1H-pyrrolo[2,3-b]pyridin-2-yl)-1H-pyrazolo[3,4-c]pyridin-5-yl)pyridin-3-amine], the half-maximal effective concentration (EC50) in assay [1], in assay [2] and in assay [3] was above 10 µM throughout. Also, the values for the inhibition at 10 µM in assay [1], in assay [2] and in assay [3] were 37.3%, 14.3% and 16.4%, respectively.
`CCNCc1cncc(-c2cc3c(-c4cc5c(-c6ccccc6F)ccnc5[nH]4)n[nH]c3cn2)c1` [Compound 62, N-((5-(3-(4-(2-Fluorophenyl)-1H-pyrrolo[2,3-b]pyridin-2-yl)-1H-pyrazolo [3,4-c]pyridin-5-yl)pyridin-3-yl)methyl)ethanamine]: the 50% effective concentration (EC50) in assay [1], in assay [2] and in assay [3] was above 10 µM in each case. The inhibition at 10 µM was determined as 24.8% in assay [1], 6.8% in assay [2] and 15.7% in assay [3].

The values are drawn from patent US10285982B2, “3-(1H-pyrrolo[2,3-B]pyridin-2-yl)-1H-pyrazolo[3,4-C]pyridines and therapeutic uses thereof” (Samumed, LLC, priority 2015, dated 2019).
